Converted amounts (≈) assume the structure as drawn.
Assay: solubility of the compound adopted in the capping layer
Type: physicochemical
Conditions: thermodynamic from solid, saturated solution, liquid chromatography against a standard curve, solvent not given
Description: The test methods may include: • (1) measuring the solubility of the compound adopted in the capping layer, where the test method may include: testing samples with different concentrations of the compound by Ultimate3000 liquid chromatographic instrument manufactured by company “waters”, plotting a standard curve, then testing a saturated solution, and calculating the solubility by combining the standard curve; • (2) measuring light extraction efficiency by an UVISEB ellipsometer from HORIBA (China) Trading Co., Ltd.; and • (3) measuring lifetime by a LTS-1004DC life tester with from supplier ENC.

solubility | Compound
298 µg/mL (≈ 423 µM) | C#Cc1ccc(N(c2ccc(CCCC)cc2)c2ccc(-c3ccc(N(c4ccc(CCCC)cc4)c4ccc(C#C)c(C)c4)c(C)c3)cc2C)cc1C
300 µg/mL (≈ 423 µM) | C=Cc1ccc(N(c2ccc(CCCC)cc2)c2ccc(-c3ccc(N(c4ccc(CCCC)cc4)c4ccc(C=C)c(C)c4)c(C)c3)cc2C)cc1C
312 µg/mL (≈ 455 µM) | CCCCc1ccc(N(c2ccc(C)cc2C)c2ccc(-c3ccc(N(c4ccc(CCCC)cc4)c4ccc(C)cc4C)c(C)c3)cc2C)cc1
210 µg/mL (≈ 307 µM) | CCCCc1ccc(N(c2ccc(C)c(C)c2)c2ccc(-c3ccc(N(c4ccc(CCCC)cc4)c4ccc(C)c(C)c4)c(C)c3)cc2C)cc1

Second part, the compound before the results:

Compound | solubility
CCCCc1ccc(N(c2ccc(-c3ccc(N(c4ccc(C)c(C)c4)c4ccc(CCCC)c(C)c4)cc3)cc2)c2ccc(C)c(C)c2)cc1C | 340 µg/mL (≈ 496 µM)
Cc1ccc(N(c2ccc(-c3ccc(N(c4ccc(C(C)C)cc4)c4ccc(C)cc4C)cc3)cc2)c2ccc(C(C)C)cc2)c(C)c1 | 309 µg/mL (≈ 491 µM)
Cc1cc(-c2ccc(N(c3ccc(-c4ccc(-c5ccccc5)cc4)cc3)c3ccc(-c4ccc(-c5ccccc5)cc4)cc3)c(C)c2)ccc1N(c1ccc(-c2ccc(-c3ccccc3)cc2)cc1)c1ccc(-c2ccc(-c3ccccc3)cc2)cc1 [reference compound] | 430 µg/mL (≈ 382 µM)
Cc1cc(-c2ccc(N(c3ccc(-c4ccccc4)cc3)c3ccc(-c4ccccc4)cc3)c(C)c2)ccc1N(c1ccc(-c2ccccc2)cc1)c1ccc(-c2ccccc2)cc1 | 211 µg/mL (≈ 257 µM)
CCc1ccc(-c2ccc(N(c3ccc(-c4ccc(CC)cc4)cc3)c3ccc(-c4ccc(N(c5ccc(-c6ccc(CC)cc6)cc5)c5ccc(-c6ccc(CC)cc6)cc5)c(C)c4)cc3C)cc2)cc1 | 210 µg/mL (≈ 225 µM)
CCCCc1ccc(N(c2ccc(-c3ccc(N(c4ccc(CCCC)cc4)C4CCCCC4)c(C)c3)cc2C)C2CCCCC2)cc1 [reference compound] | 566 µg/mL (≈ 883 µM)
Cc1ccc(N(c2ccc(C(C)C)cc2)c2ccc(-c3ccc(N(c4ccc(C(C)C)cc4)c4ccc(C)cc4C)c(C)c3)cc2C)c(C)c1 | 205 µg/mL (≈ 312 µM)

From patent US10510981B2, “Organic light-emitting diode display panel, fabrication method, and electronic apparatus” (Shanghai Tianma AM-OLED Co., Ltd., priority 2017, dated 2019)
